Each structure is given as a SMILES string.

For the first test, the target named is T1, α-7 nicotinic ACh receptor ion channel (Rattus norvegicus, UniProt Q05941).
T1 construct: expressed in transfected cells
T1 sequence (Q05941 23-502): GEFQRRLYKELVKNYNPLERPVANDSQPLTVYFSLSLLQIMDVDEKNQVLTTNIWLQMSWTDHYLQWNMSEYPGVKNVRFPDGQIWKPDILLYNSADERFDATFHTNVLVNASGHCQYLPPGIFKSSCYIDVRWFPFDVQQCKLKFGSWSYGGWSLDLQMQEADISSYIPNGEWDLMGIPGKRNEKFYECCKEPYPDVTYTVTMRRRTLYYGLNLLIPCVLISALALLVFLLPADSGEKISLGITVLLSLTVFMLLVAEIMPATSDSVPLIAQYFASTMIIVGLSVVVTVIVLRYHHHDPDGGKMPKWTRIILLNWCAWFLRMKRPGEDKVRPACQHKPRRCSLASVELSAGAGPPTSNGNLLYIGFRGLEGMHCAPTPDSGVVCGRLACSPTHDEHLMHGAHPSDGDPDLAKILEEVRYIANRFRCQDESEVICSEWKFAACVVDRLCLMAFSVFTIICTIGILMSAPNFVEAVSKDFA
The test is described as follows: Ca2+-sensitive fluorescence-based FLIPR assay of α7 nicotinic receptor channel function (agonist activity). It is filed as cell-based. The conditions noted are these: FLIPR α7-HI (EC50, nM), HEK 293 cells, Ca2+ flux. The procedure:
II) A Ca^2+-Sensitive, Fluorescence-Based Assay α-7 for Nicotinic Acetylcholine Receptor Channel Function in Mammalian Cells (“FLIPR”).
Lead compounds are evaluated for agonist activity at α-7, α3β4, α4αβ2, and α1β1δ1ε sub-types of nicotinic ACh receptor ion channels expressed in mammalian HEK 293 cells. Agonist potency and efficacy values are determined from kinetic fluorescence Ca^2+ influx measurements made using a 384 well FLIPR (Fluorescence Image Plate Reader). […] In this assay, channel expressing HEK cell lines seeded in 384 well assay plates are loaded with a membrane permeant fluorescent Ca^2+ indicator dye, whose 510 nm green emission signal increases in response to elevation of intracellular Ca^2+ concentration. The basal fluorescence from the cells is monitored in real time, followed by the acute addition of test compounds.
Reagents: The acetomethoxy (AM) ester of the Ca^2+ indicator dye Fluo-4 was obtained from InVitrogen, (Carlsbad, Calif.). Acetylcholine and all buffer constituents were purchased from Sigma Chemical Company, St. Louis, Mo. G418 and Minimal Essential Medium were purchased from InVitrogen Life Technologies, Carlsbad, Calif. Fetal bovine serum was purchased from (InVitrogen, Carlsbad, Calif.).
HEK-293 cells were grown in Minimal Essential Medium containing 10% (v/v) fetal bovine serum at 37° C. in a 5% CO2 incubator. HEK-293 cells stably expressing the ion channels were grown in the same medium with the addition of 500 μg/ml G418.
HEK-293 cells expressing the ion channels of interest were plated in 384 well, black-walled, clear-bottomed, poly-D-lysine coated plates at a density of ˜20,000 cells/well in 20 μl of Minimal Essential Medium containing 10% (v/v) fetal bovine serum and incubated for 2 days at 29° C. in a 5% CO2 incubator. Prior to assay, cells were loaded with the Fluo-4 AM ester. […] Dye loading was allowed to proceed for 90 minutes at room temperature at which time the dye loading solution was removed and replaced with 40 μl/well of Hanks buffer. Cells loaded with dye were loaded onto a FLIPR384 (Molecular Devices, Sunnyvale, Calif.). […] Emission was filtered using a 540+/−30 nm bandpass filter. For evaluation of the effects of test compounds using the Ca^2+ flux assay, compounds to be tested were provided in assay ready plates. For nicotinic receptor ion channel expressing cells, the assay was initiated by the addition of 20 μl/well of Hanks buffer containing test compounds. For all assays, data were collected at 1 Hz for 10 seconds (baseline), at which time the compound containing stimulus buffers are added, and further measurements collected at 0.33 Hz for 3 min.
The statistical robustness of the nicotinic receptor Ca^2+ flux assays is determined from blanks and totals wells. […] The raw fluorescence units data files generated on the FLIPR plate reader are automatically exported and processed by in-house data analysis tools. The reduced percent activation data for each concentration of test compound are fit using MathIQ fitting engine (ID Business Solutions Limited, Surrey, UK). Data were analyzed by fitting maximum amplitudes of change in fluorescence, for Ca^2+ flux for a given condition of test compound. […] Test compound efficacy values (Ymax values) are expressed relative to a maximal response to acetylcholine in the total wells.
A general note: Calcium flux is commonly read through the fluorescence of an indicator in the cells.
Consider `Clc1ccc2nc(NC3=NCC4(CN5CCC4CC5)N3)sc2c1` (centres unmarked) [Example 52], for which the response was half-maximal at 154 nM (EC50).

The same test, now with this note: FLIPR α7-HI (EC50, nM), HEK 293 cells, Ca2+ flux; Table 1, activity class.
Molecule `CN1C(Nc2nc3ccc(Br)nc3s2)=NCC12CN1CCC2CC1` (centres unmarked) [Example 50] showed an EC50 of 1000 to 100000 nM.
Same read-out and setting: next, `FC(F)(F)c1ccc2c(NC3=NCC4(CN5CCC4CC5)N3)n[nH]c2c1` (centres unmarked) [Example 51]: > 1e+06 nM; `Clc1ccc2nc(NC3=NCC4(CN5CCC4CC5)N3)sc2c1` (centres unmarked) [Example 52]: 100 to 1000 nM; `Clc1cccc2nc(NC3=NCC4(CN5CCC4CC5)N3)sc12` (centres unmarked) [Example 53]: 100 to 1000 nM.
On the same count and under the same terms, the result for `COc1ccc2sc(NC3=NCC4(CN5CCC4CC5)N3)nc2c1` (centres unmarked) [Example 54] reads 100 to 1000 nM; that for `Fc1cccc2sc(NC3=NCC4(CN5CCC4CC5)N3)nc12` (centres unmarked) [Example 55], < 100 nM.
On the same count and under the same terms, the result for `c1cnc2sc(NC3=NCC4(CN5CCC4CC5)N3)nc2c1` (centres unmarked) [Example 56] reads < 100 nM; that for `Clc1ccc2oc(NC3=NCC4(CN5CCC4CC5)N3)nc2c1` (centres unmarked) [Example 57], 100 to 1000 nM; that for `CN1C(Nc2nc3cc(Cl)ccc3o2)=NCC12CN1CCC2CC1` (centres unmarked) [Example 58], 100 to 1000 nM.
As for `c1ccc2oc(NC3=NCC4(CN5CCC4CC5)N3)nc2c1` (centres unmarked) [Example 59], the EC50 was < 100 nM.
In turn, `CN1C(Nc2nc3ccccc3o2)=NCC12CN1CCC2CC1` (centres unmarked) [Example 60] had an EC50 of 100 to 1000 nM.
`c1cn(-c2cc(NC3=NCC4(CN5CCC4CC5)N3)ncn2)cn1` (centres unmarked) [Example 61] had an EC50 of 100 to 1000 nM.
Still for that read-out and setting: the result for `Cc1ccc2nc(NC3=NCC4(CN5CCC4CC5)N3)oc2n1` (centres unmarked) [Example 62, N-(3,5-Dihydro-1′-azaspiro[imidazole-4,3′-bicyclo[2.2.2]octane]-2-yl)-5-methyloxazolo[5,4-b]pyridin-2-amine] reads 100 to 1000 nM; that for `Cc1ccc2nc(NC3=NCC4(CN5CCC4CC5)N3)sc2c1` (centres unmarked) [Example 63, N-(3,5-dihydro-1′-azaspiro[imidazole-4,3′-bicyclo[2.2.2]octane]-2-yl)-6-methylbenzo[d]thiazol-2-amine], 100 to 1000 nM; that for `Cc1ccc2c(NC3=NCC4(CN5CCC4CC5)N3)ncnn12` (centres unmarked) [Example 64], 100 to 1000 nM.
On to `Clc1ccc2c(NC3=NCC4(CN5CCC4CC5)N3)ncnn12` (centres unmarked) [Example 65, N-(7-Chloropyrrolo[1,2-f][1,2,4]triazin-4-yl)-3,5-dihydro-1′-azaspiro[imidazole-4,3′-bicyclo[2.2.2]octan]-2-amine], for which the EC50 lay within 100 to 1000 nM.
As to `Brc1ccc2c(NC3=NCC4(CN5CCC4CC5)N3)ncnn12` (centres unmarked) [Example 66], the half-maximal effective concentration (EC50) fell in the range of 100 to 1000 nM.

Still in this test, the particulars now being: FLIPR α7-HI (EC50, nM), HEK 293 cells, Ca2+ flux; Table 2, activity class column.
Regarding `COc1ccc2nc(NC3=NC4(CO3)CN3CCC4CC3)sc2c1` (centres unmarked) [Example 67, N-(6-Methoxybenzo[d]thiazol-2-yl)-5H-1′-azaspiro[oxazole-4,3′-bicyclo[2.2.2]octan]-2-amine], the EC50 lay in the range of 1000 to 100000 nM.
Still for that read-out and setting: the result for `c1ccc(-c2cnc(NC3=NC4(CO3)CN3CCC4CC3)s2)cc1` (centres unmarked) [Example 68, N-(5-Phenylthiazol-2-yl)-5H-1′-azaspiro[oxazole-4,3′-bicyclo[2.2.2]octan]-2-amine] reads 100 to 1000 nM.

Still in this test, the particulars now being: FLIPR α7-HI (EC50, nM), HEK 293 cells, Ca2+ flux; Table 3.
The molecule `c1ccc(-c2cnc(NC3=NCCC4(CN5CCC4CC5)O3)s2)cc1` (centres unmarked) [Example 71] registered an EC50 of 87 nM.
On the same count and under the same terms, the result for `c1csc(NC2=NCCC3(CN4CCC3CC4)O2)n1` (centres unmarked) [Example 73] reads 4530 nM; that for `c1ccc2cc(NC3=NCCC4(CN5CCC4CC5)O3)ncc2c1` (centres unmarked) [Example 76], 264 nM.
Still for that read-out and setting: next, `COc1cc(NC2=NCCC3(CN4CCC3CC4)O2)ncn1` (centres unmarked) [Example 80]: 3650 nM; `c1ccc2nc(NC3=NCCC4(CN5CCC4CC5)O3)ccc2c1` (centres unmarked) [Example 86]: 1810 nM.

The same test, now with this note: FLIPR α7-HI (EC50, nM), HEK 293 cells, Ca2+ flux; Table 3, activity class.
Molecule `COc1ccc2nc(NC3=NCCC4(CN5CCC4CC5)O3)sc2c1` (centres unmarked) [Example 70, N-(6-Methoxybenzo[d]thiazol-2-yl)-4,5-dihydro-1′-azaspiro[[1,3]oxazine-6,3′-bicyclo[2.2.2]octan]-2-amine] gave an EC50 of 100 to 1000 nM.
Regarding `c1ccc(-c2cnc(NC3=NCCC4(CN5CCC4CC5)O3)s2)cc1` (centres unmarked) [Example 71], the EC50 was < 100 nM.
On the same count and under the same terms, next, `Clc1cnc(NC2=NCCC3(CN4CCC3CC4)O2)cn1` (centres unmarked) [Example 72, N-(5-Chloropyrazin-2-yl)-4,5-dihydro-1′-azaspiro[[1,3]oxazine-6,3′-bicyclo[2.2.2]octan]-2-amine]: 1000 to 100000 nM.
Same read-out and setting: the result for `c1csc(NC2=NCCC3(CN4CCC3CC4)O2)n1` (centres unmarked) [Example 73] reads 1000 to 100000 nM; that for `c1ccc2sc(NC3=NCCC4(CN5CCC4CC5)O3)nc2c1` (centres unmarked) [Example 74], 100 to 1000 nM; that for `Clc1ccc(NC2=NCCC3(CN4CCC3CC4)O2)nc1` (centres unmarked) [Example 75], 1000 to 100000 nM.
Still for that read-out and setting: next, `c1ccc2cc(NC3=NCCC4(CN5CCC4CC5)O3)ncc2c1` (centres unmarked) [Example 76]: 100 to 1000 nM.
For the molecule `Clc1cnc(NC2=NCCC3(CN4CCC3CC4)O2)nc1` (centres unmarked) [Example 78], the EC50 was in the range of 1000 to 100000 nM.
As to `COc1ncc2nc(NC3=NCCC4(CN5CCC4CC5)O3)sc2n1` (centres unmarked) [Example 79, N-(5-Methoxythiazolo[5,4-d]pyrimidin-2-yl)-4,5-dihydro-1′-azaspiro[[1,3]oxazine-6,3′-bicyclo[2.2.2]octan]-2-amine], the EC50 was in the range of 1000 to 100000 nM.
Still for that read-out and setting: next, `COc1cc(NC2=NCCC3(CN4CCC3CC4)O2)ncn1` (centres unmarked) [Example 80]: 1000 to 100000 nM.
Still for that read-out and setting: next, `Cc1nnc(NC2=NCCC3(CN4CCC3CC4)O2)nc1C` (centres unmarked) [Example 81]: 1000 to 100000 nM; `c1ccc2c(NC3=NCCC4(CN5CCC4CC5)O3)ncnc2c1` (centres unmarked) [Example 82]: 100 to 1000 nM; `Clc1ccc(NC2=NCCC3(CN4CCC3CC4)O2)nn1` (centres unmarked) [Example 83]: 1000 to 100000 nM.
The same measure, in the same setting: the result for `c1ccc2nc(NC3=NCCC4(CN5CCC4CC5)O3)ncc2c1` (centres unmarked) [Example 84] reads 100 to 1000 nM.
The molecule `c1ccc2nc(NC3=NCCC4(CN5CCC4CC5)O3)cnc2c1` (centres unmarked) [Example 85] registered a half-maximal effective concentration (EC50) of 1000 to 100000 nM.
The same measure, in the same setting: the result for `c1ccc2nc(NC3=NCCC4(CN5CCC4CC5)O3)ccc2c1` (centres unmarked) [Example 86] reads 1000 to 100000 nM.
On the same count and under the same terms, next, `Brc1ccc2nc(NC3=NCCC4(CN5CCC4CC5)O3)sc2n1` (centres unmarked) [Example 87]: 1000 to 100000 nM.

Still in this test, the particulars now being: FLIPR α7-HI (EC50, nM), HEK 293 cells, Ca2+ flux; Table 4, activity class.
With `COc1ccc2nc(/N=C3\OC4(CN5CCC4CC5)CN3C)sc2c1` (centres unmarked) [Example 89, (Z)-6-Methoxy-N-(3-methyl-1′-azaspiro[oxazolidine-5,3′-bicyclo[2.2.2]octane]-2-ylidene)benzo[d]thiazol-2-amine], the EC50 was > 1e+06 nM.
The same measure, in the same setting: the result for `CN1CC2(CN3CCC2CC3)O/C1=N\c1ncc(-c2ccccc2)s1` (centres unmarked) [Example 90, (Z)—N-(3-Methyl-1′-azaspiro[oxazolidine-5,3′-bicyclo[2.2.2]octane]-2-ylidene)-5-phenylthiazol-2-amine] reads 100 to 1000 nM.
On the same count and under the same terms, next, `CN1CC2(CN3CCC2CC3)O/C1=N\c1cnc(Cl)cn1` (centres unmarked) [Example 91, (Z)-5-Chloro-N-(3-methyl-1′-azaspiro[oxazolidine-5,3′-bicyclo[2.2.2]octane]-2-ylidene)pyrazin-2-amine]: 1000 to 100000 nM.

Staying with this test, now noted: HEK 293 cells, Ca2+ flux; Table 3, activity class; read-out: FLIPR α7-HI (EC50).
As for `c1ccc2[nH]c(NC3=NCCC4(CN5CCC4CC5)O3)nc2c1` (centres unmarked) [Example 77], the EC50 is > 1e+06 nM.

Still in this test, the particulars now being: HEK 293 cells, Ca2+ flux; Table 3; read-out: FLIPR α7-HI (EC50).
Consider `c1ccc2[nH]c(NC3=NCCC4(CN5CCC4CC5)O3)nc2c1` (centres unmarked) [Example 77], for which the EC50 was > 100000 nM.

As a reminder, the EC50 is the concentration giving half of the maximal effect.

Values taken from US9458179B2, “Quinuclidine, 1-azabicyclo[2.2.1]heptane, 1-azabicyclo [3.2.1]octane, and 1-azabicyclo[3.2.2]nonane compounds as alpha-7 nicotinic acetylcholine receptor ligands” (BRISTOL-MYERS SQUIBB COMPANY, priority 2012, dated 2016).
